Assay [1] concerns triple mutant L50F/E166A/L167F. The following applies: cited from earlier work.
Assay [2] concerns triple mutant L50F/E166A/L167F. Particulars: cited from earlier work. This is another data set of the same source.
For assay [3], the system named is rNsp5^WT recombinant SARS-CoV-2. Description: microbe, parasite or virus in culture. The format is cell-based. Particulars: Severe acute respiratory syndrome coronavirus 2.

Molecules are shown by their SMILES.

For the compound `CC(C)(C)[C@H](NC(=O)C(F)(F)F)C(=O)N1C[C@H]2[C@@H]([C@H]1C(=O)N[C@H](C#N)C[C@@H]1CCNC1=O)C2(C)C` [nirmatrelvir], the “IC50 increase in the enzymatic assay” value in assay [1] was 72 fold. For the same compound, in assay [2], the “EC50 increase in the antiviral assay” value was 51 fold. Also, the EC50 (as a rule, the concentration at which the effect is half-maximal) in assay [3] amounted to 25.5 nM.

Values taken from publication PMC10451032 (ACS Central Science, 2023).
